A short description of data set [1]: physchem. From the text:
Table 4. Solubility of cryptophycin glycinate 12 in various parenteral vehicles.

Data set [2] in a line: physchem. It counts as physicochemical. The note with it: for solubility: water.
For data set [3], the system named is GC3 human colon carcinoma cells. The experiment in a line: cells. The following applies: 72 hours incubation, MTT. It counts as cell-based. The protocol:
Selected wells of a 96 well plate were seeded with GC3 human colon carcinoma cells ([…] cells in 100µl assay medium/well) twenty four hours prior to test compound addition. Cell free assay medium was added to other select wells of the 96 well plate. The assay medium (RPMI-1640 was the medium used; however, any medium that will allow the cells to survive would be acceptable) was supplemented with 10% dialyzed fetal bovine serum and 25 mM HEPES buffer.
The test compound was stored in an amber bottle prior to testing. Fresh dimethylsulfoxide stock solution (200µg/ml) was prepared immediately prior to preparation of test sample dilutions in phosphate-buffered saline (PBS). A dilution of 1:20 dimethylsulfoxide solution in PBS was prepared such that the final concentration was 10 µg/ml. Serial 1:3 dilutions using PBS (.5ml previous sample of 1ml PBS) were prepared. Falcon 2054 tubes were used for the assay.
A 10ul sample of each dilution of test compound was added in triplicate to wells of GC3 plates. The plates were incubated for 72 hours at about 37°C. A 10µl sample of stock […] salt ("MTT" 5 mg/ml in PBS) was added to each well. The plates were incubated for about an hour at 37°. The plates were centrifuged, media was decanted from the wells and 100µl acid-isopropanol (0.04 N HCl in isopropanol) was added to each well. The plate was read within one hour using a test wavelength of 570nm (SpectraMax reader).

Data set [4] concerns A-10 rat aortic smooth muscle cells. The experiment in a line: Immunofluorescence: effects on the cytoskeleton. It counts as cell-based. The following applies: A-10 cells, 2µM cytochalasin B, 24 hours. The protocol: (§1) A-10 cells are grown to near-confluency on glass coverslips in BME/10% FBS. Compounds in PBS are added to the indicated final concentrations and cells are incubated for an additional 24 hours. For the staining of microtubules and intermediate filaments, the cells are fixed with cold methanol and incubated with PBS containing 10% calf serum to block nonspecific binding sites. Cells are then incubated at 37°C for 60 min. With either monoclonal anti-β-tubulin or with monoclonal anti-vimentin at dilutions recommended by the manufacturer. Bound primary antibodies are subsequently visualized by a 45 minute incubation with fluorescein-conjugated rabbit antimouse IgG. The coverslips are mounted on microscope slides and the fluorescence patterns are examined and photographed using a Zeiss Photomicroscope I11 equipped with epifluorescence optics for fluorescein. […] PBS containing 100nM TRITC-phalloidin is then added and the mixture is allowed to incubate for 45 min. At 37°C. The cells are washed rapidly with PBS before the coverslips are mounted and immediately photographed as described above.
After 24 hours, microtubules and vimentin intermediate filaments are visualized by indirect immunofluorescence and microfilaments are stained using TRITC-phalloidin. The morphological effects of each drug is examined. […]

For data set [5], the system named is A-10 cells. Put plainly: Effects on taxol-stabilized microtubules. It counts as cell-based, rat. The protocol: as §1
After 24 hours, microtubule organization is examined by immunofluorescence as described above. […] Similarly, microtubules pretreated with taxol are observed with cryptophycin treatment.

For data set [6], the system named is A-10 cells. Put plainly: Reversibility of microtubule depolymerization. It counts as cell-based, rat. The note with it: 100nM vinblastine 24 hr. The protocol: as §1
The cells are then washed and incubated in drug-free medium for periods of 1 hour or 24 hours. […] Cells are visualized for microtubule state after treatment with a cryptophycin compound of this invention at either 1 hour or 24 hours after removal of the cryptophycin compounds.

Setting [7] is: pH 8, room temperature, read-out: solubility value.

≈ marks a conversion by molar mass, not a printed value. Counter-ions that a name gives are not always drawn. Like-named read-outs stand apart in the source and are kept apart here.

The term solubility denotes how much of the substance goes into solution per volume. On to `COc1ccc(C[C@H]2NC(=O)/C=C/C[C@@H]([C@H](C)[C@@H](O)[C@@H](Cl)c3ccccc3)OC(=O)[C@H](CC(C)C)OC(=O)C(C)(C)CNC2=O)cc1Cl` [Compound 1, cryptophycin 55], for which the Comparative solubilities result in the data set “physchem [1]” (excipient 1: Propylene Glycol 15, Ethanol 10 %v/v, volume adjusted 0.05M acetate buffer, BQL = Below quantitation limit, approximately 0.001 mg/ml) was “BQL”. Further, the “aqueous solubility over the pH range studied” value in “physchem [2]” (aqueous pH 4-8, room temperature) is “declined as the pH bacame basic”. Further, the solubility was approximately 50 µg/mL (≈ 70.9 µM) in the data set “physchem [2]” (pH 4, water, pH of 4, read-out: aqueous solubility value) and 10 µg/mL (≈ 14.2 µM) in the data set “physchem [2]” (setting [7]). For orientation: IC50 means the concentration that gives 50% inhibition. A low value points to higher potency. `COc1ccc(C[C@H]2NC(=O)/C=C/C[C@@H]([C@H](C)[C@@H](OC(=O)CN)[C@@H](Cl)c3ccccc3)OC(=O)[C@H](CC(C)C)OC(=O)C(C)(C)CNC2=O)cc1Cl` [Compound 12]: the IC50 in data set [3] (Homo sapiens, Colon carcinoma cell) was determined as 0.1 nM. For the same molecule, the solubility in “physchem [1]” (0.05m acetate buffer, pH 4, aqueous buffer, Comparative solubilities, excipient 5: 0.05M Acetate buffer pH 4.0 100 %v/v) came out at 30 µg/mL (≈ 39.3 µM); in the data set “physchem [1]” (emulphor el719 in acetate buffer, aqueous buffer, Comparative solubilities, excipient 4: Emulphor EL719 1 (w/v), volume adjusted 0.05M acetate buffer), 1500 µg/mL (≈ 1970 µM); in “physchem [1]” (ethanol/acetate buffer, pH 4, organic solvent or mixture, Solubility in parenteral vehicle, vehicle 3: Ethanol 10 %v/v, 0.05M Acetate buffer pH 4.0 qs), 1290 µg/mL (≈ 1690 µM); in the data set “physchem [1]” (ethanol/propylene glycol/acetate buffer, pH 4, organic solvent or mixture, Solubility in parenteral vehicle, vehicle 2: Ethanol 10, Propylene Glycol 10 %v/v, 0.05 M Acetate buffer pH 4.0 qs), 1990 µg/mL (≈ 2610 µM); in the data set “physchem [1]” (ethanol/propylene glycol/acetate buffer, pH 4, organic solvent or mixture, Solubility in parenteral vehicle, vehicle 6: Ethanol 10, Propylene Glycol 25 %v/v, 0.05 M Acetate buffer pH 4.0 qs) it was 10300 µg/mL (≈ 13500 µM); in the data set “physchem [1]” (ethanol/propylene glycol/acetate buffer, pH 4, organic solvent or mixture, Solubility in parenteral vehicle, vehicle 7: Ethanol 10, Propylene Glycol 15 %v/v, 0.05 M Acetate buffer pH 4.0 qs), 4320 µg/mL (≈ 5660 µM). The solubility is 110 µg/mL (≈ 144 µM) in “physchem [1]” (ethanol/propylene glycol/citrate buffer, pH 4, organic solvent or mixture, Solubility in parenteral vehicle, vehicle 1: Ethanol 10, Propylene Glycol 10 %v/v, 0.05 M Citrate buffer pH 4.0 qs); 2210 µg/mL (≈ 2900 µM) in “physchem [1]” (polysorbate 80/acetate buffer, pH 4, Solubility in parenteral vehicle, vehicle 5: Polysorbate 80 0.5 (w/v), 0.05 M Acetate buffer pH 4.0 qs); 1000 to 2000 µg/mL (≈ 1310 to 2620 µM) in “physchem [1]” (polysorbate 80 in acetate buffer, aqueous buffer, Comparative solubilities, excipient 3: Polysorbate 80 1(w/v), volume adjusted 0.05M acetate buffer, BQL = Below quantitation limit, approximately 0.001 mg/ml); 1580 µg/mL (≈ 2070 µM) in the data set “physchem [1]” (propylene glycol/acetate buffer, pH 4, organic solvent or mixture, Solubility in parenteral vehicle, vehicle 4: Propylene Glycol 10 %v/v, 0.05 M Acetate buffer pH 4.0 qs); more than 2000 µg/mL in the data set “physchem [1]” (propylene glycol/ethanol/acetate buffer, organic solvent or mixture); more than 2000 µg/mL in “physchem [1]” (propylene glycol/peg 3000/acetate buffer, organic solvent or mixture). The solubility in the data set “physchem [2]” (setting [7]) stood at 30 µg/mL (≈ 39.3 µM). With `COc1ccc(CC2NC(=O)C=CCC(C(C)C(OC(=O)CCN)C(Cl)c3ccccc3)OC(=O)C(CC(C)C)OC(=O)C(C)(C)CNC2=O)cc1Cl` (stereo not shown) [Compound 14, Cryptophycin 55 b-alaninate hydrochloride salt], the IC50 in data set [3] worked out at 21 nM. That is a double-digit nanomolar value. For `COc1ccc(CC2NC(=O)C=CCC(C(C)C(OC(=O)C(C)N)C(Cl)c3ccccc3)OC(=O)C(CC(C)C)OC(=O)C(C)(C)CNC2=O)cc1Cl` (stereo not shown) [Compound 18, Cryptophycin 55 (L)-alaninate hydrochloride salt], in data set [3], it took 2.6 nM to reach half-maximal inhibition (IC50). Compared with the last molecule, the IC50 is about 8.1-fold lower. `COc1ccc(C[C@H]2NC(=O)/C=C/C[C@@H]([C@H](C)[C@@H](OC(=O)[C@@H](N)CCCCN)[C@@H](Cl)c3ccccc3)OC(=O)[C@H](CC(C)C)OC(=O)C(C)(C)CNC2=O)cc1Cl` [Compound 22, Cryptophycin 55 (L)-lysinate di-hydrochloride salt] registered an IC50 in data set [3] of 7.2 nM. Molecule `COc1ccc(CC2NC(=O)C=CCC(C(C)C(OC(=O)C(N)CCCCN)C(Cl)c3ccccc3)OC(=O)C(CC(C)C)OC(=O)C(C)(C)CNC2=O)cc1Cl` (stereo not shown) [Compound 34, Cryptophycin 55 (D)-lysinate di-hydrochloride salt] gave an IC50 in data set [3] (Table 2 of Example 94) of 6.5 nM. `COc1ccc(CC2NC(=O)C=CCC(C(C)C(OC(=O)[C@@H](N)CN)C(Cl)c3ccccc3)OC(=O)C(CC(C)C)OC(=O)C(C)(C)CNC2=O)cc1Cl` (stereo partly drawn) [Compound 44, Cryptophycin 55 (S)-2,3-diaminopropionate dihydrochloride salt] gave an IC50 in data set [3] (Table 2 of Example 94) of 28 nM. Still for that read-out and setting: next, `COc1ccc(CC2NC(=O)C=CCC(C(C)C(OC(=O)C(N)CO)C(Cl)c3ccccc3)OC(=O)C(CC(C)C)OC(=O)C(C)(C)CNC2=O)cc1Cl` (stereo not shown) [Compound 46, Cryptophycin 55 (L)-serinate hydrochloride salt]: 50 nM. Regarding `C=C1[C@@H](C)[C@H]2[C@H](Cc3ccccc3)NC(=O)[C@]23OC(=O)/C=C/[C@H](O)CCC[C@@H](C)C/C=C/[C@H]3[C@@H]1O` [Cytochalasin B, cytochalasin B], the effect on microfilaments entry in data set [4] (TRITC-phalloidin) is “complete depolymerization of microfilaments”. The “effect on distribution of microtubules and intermediate filaments” value in data set [4] (indirect immunofluorescence) is recorded as “did not affect the distribution of either microtubules or intermediate filaments”. Regarding `CC(=O)O[C@H]1C(=O)[C@@]2(C)[C@H]([C@H](OC(=O)c3ccccc3)[C@]3(O)C[C@H](OC(=O)[C@H](O)[C@@H](NC(=O)c4ccccc4)c4ccccc4)C(C)=C1C3(C)C)[C@]1(OC(C)=O)CO[C@@H]1C[C@@H]2O` [Taxol, taxol], in the data set with A-10 cells [5] (10µM taxol, compared with control cells), the microtubule organization entry is “extensively bundled”. For the molecule `CC[C@]1(O)C[C@@H]2CN(CCc3c([nH]c4ccccc34)[C@@](C(=O)OC)(c3cc4c(cc3OC)N(C)[C@H]3[C@@](O)(C(=O)OC)[C@H](OC(C)=O)[C@]5(CC)C=CCN6CC[C@]43[C@@H]65)C2)C1` [Vinblastine, vinblastine], in the data set with A-10 cells [5] (100nM vinblastine, 24 hours), the “microtubule depolymerization, non-pretreated cells” value was “complete depolymerization of microtubules”. The “microtubule depolymerization after pretreatment with taxol” value in the data set with A-10 cells [5] (3 hours 10µM taxol, then 100nM vinblastine, 24 hours) is “pretreatment with taxol prevented microtubule depolymerization”. For the same molecule, the results for the “microtubule repolymerization after removal of drug” value with A-10 cells [6] (then drug-free medium 1 hour) and in the data set with A-10 cells [6] (then drug-free medium 24 hours) were “significant levels of microtubules” and “complete morphological recovery”, respectively. In the case of “Cryptophycin 55 3,6,9-tioxadecanoate [Compound 48]”, in data set [3] (Table 2 of Example 94), the midpoint of inhibition, the IC50, lay at 10 nM. Consider “Cryptophycin 55 (2'-di-t-butylphosphatyl)phenylacetate [Compound 5]”, for which the IC50 in data set [3] (Table 2 of Example 94) came to 31 nM.

In the case of “Cryptophycin 55 (D)-aspartate hydrochloride salt [Compound 40]”, half-maximal inhibition in data set [3] (Table 2 of Example 94) (IC50) required 2 nM. Turning to “Cryptophycin 55 (L) -γ-glutamate hydrochloride salt [Compound 42]”, the IC50 in data set [3] (Table 2 of Example 94) was 15 nM. On to “Cryptophycin 55 (L)-aspartate hydrochloride salt [Compound 38]”, for which 1.6 nM corresponded to half-maximal inhibition in data set [3] (Table 2 of Example 94) (IC50). Same read-out and setting: next, “Cryptophycin 55 (L)-α-glutamate hydrochloride salt [Compound 36]”: 2.8 nM. Consider “Cryptophycin 55 N-methylpyridinium acetate salt [Compound 8]”, for which the IC50 in data set [3] stood at 2.2 nM; in data set [3] (Table 2 of Example 94) it was 116 nM.

In data set [3] (Table 2 of Example 94), “Cryptophycin 55 N-t-Boc-3-(3-chloro-4-methoxyphenyl)-(D)-alaninate [Compound 9]” returned an IC50 of 2.2 nM.

“Cryptophycin 55 N-t-Boc-(D)-alaninate [Compound 19]” yielded an IC50 in data set [3] (Table 2 of Example 94) of 0.1 nM. In the case of “Cryptophycin 55 N-t-Boc-glycinate [Compound 11]”, the midpoint of inhibition in data set [3] (Table 2 of Example 94), the IC50, lay at 6.8 nM. In data set [3] (Table 2 of Example 94), “Cryptophycin 55 Na-Ne-di-t-Boc-(L)-lysinate [Compound 21]” came in with an IC50 of 21 nM. In data set [3] (Table 2 of Example 94), “Cryptophycin 55 glycidylglycinate hydrochloride salt [Compound 47]” yielded a concentration for half-maximal inhibition (IC50) of 2.5 nM.

Regarding “Cryptophycin 55 nicotinoate hydrochloride salt [Compound 7]”, the IC50 in data set [3] was determined as 116 nM; in data set [3] (Table 2 of Example 94), 3.7 nM.

Values taken from patent EP0934065B1, “NOVEL CRYPTOPHYCIN DERIVATIVES AS ANTI-NEOPLASTIC AGENTS” (priority 1996, dated 1998).
